One data set deals with T1, hT2R8 bitter receptor (Homo sapiens, UniProt Q9NYW2).
T1 sequence (Q9NYW2 1-309): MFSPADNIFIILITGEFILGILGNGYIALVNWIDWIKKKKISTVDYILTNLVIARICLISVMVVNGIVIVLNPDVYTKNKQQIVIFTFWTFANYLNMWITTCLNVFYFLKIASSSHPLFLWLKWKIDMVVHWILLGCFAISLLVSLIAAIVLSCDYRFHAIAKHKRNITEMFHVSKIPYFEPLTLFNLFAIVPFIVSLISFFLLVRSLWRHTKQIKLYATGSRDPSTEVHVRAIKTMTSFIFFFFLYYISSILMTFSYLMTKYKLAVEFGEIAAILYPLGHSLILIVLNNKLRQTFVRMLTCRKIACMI
Put plainly: hT2R8 bitter receptor inhibition. It is filed as cell-based. Particulars: read-out: IC50, inhibition of hT2R08 bitter receptor.

Consider `Cc1noc(C)c1Cn1cc(N2C(=O)N(Cc3cc(O)cc(O)c3)C(C)(C)C2=O)cn1` [Example 105], for which the melting point (as a rule, the temperature, or range, at which the solid turns liquid) lay in the range of 213 to 215 °C. Moreover, at hT2R8 bitter receptor, the half-maximal inhibitory concentration (IC50) (as a rule, the concentration needed to halve the response being measured) was found to be 10 nM.

(Values after patent US20160376263A1, “BITTER TASTE MODIFIERS INCLUDING SUBSTITUTED 1-BENZYL-3-(1-(ISOXAZOL-4-YLMETHYL)-1H-PYRAZOL-4-YL)IMIDAZOLIDINE-2,4-DIONES AND COMPOSITIONS THEREOF” (SENOMYX, INC., priority 2016, published 2016).)
